Results from ChEMBL document CHEMBL3400066, “2-(Isopropylamino)thieno[3,2-d]pyrimidin-4(3H)-one derivatives as selective phosphodiesterase 7 inhibitors with potent in vivo efficacy” (Bioorg Med Chem Lett, 2015).
Values after ≈ are worked out from the molar mass of the structure shown.

Columns and labels:
[1] = target: cGMP-specific 3',5'-cyclic phosphodiesterase (Homo sapiens, UniProt O76074); experiment: Inhibition of PDE5A (unknown origin)
Lymphocyte = experiment: Inhibition of IL2 production in activated mouse lymphocytes after 3 hrs by ELISA; type: functional, cell-based
Mus musculus [2] = experiment: Antiinflammatory activity in ICR mouse ear edema model assessed as inhibition of TPA-induced edema at 0.3 % W/V per ear administered topically 30 mins before TPA challenge; type: functional
[3] = target: 3',5'-cyclic-AMP phosphodiesterase 4B (Homo sapiens, UniProt Q07343); experiment: Inhibition of human PDE4B expressed in insect cells assessed as inhibition of [3H]cAMP to [3H]AMP hydrolysis after 30 mins by scintillation counting
[4] = target: High affinity 3',5'-cyclic-AMP phosphodiesterase 7A (Homo sapiens, UniProt Q13946); experiment: Inhibition of human PDE7A expressed in insect cells assessed as inhibition of [3H]cAMP to [3H]AMP hydrolysis after 30 mins by scintillation counting
Mus musculus [5] = experiment: Antiinflammatory activity in ICR mouse ear edema model assessed as inhibition of TPA-induced edema at 1% W/V per ear administered topically 30 mins before TPA challenge; type: functional
[6] = Solubility of the compound in phosphate buffer at pH 6.8; type: physicochemical
[7] = target: cGMP-inhibited 3',5'-cyclic phosphodiesterase 3A (Homo sapiens, UniProt Q14432); experiment: Inhibition of PDE3A (unknown origin)
cGMP-inhibited 3',5'-cyclic phosphodiesterase 3A, sequence (Q14432 whole entry): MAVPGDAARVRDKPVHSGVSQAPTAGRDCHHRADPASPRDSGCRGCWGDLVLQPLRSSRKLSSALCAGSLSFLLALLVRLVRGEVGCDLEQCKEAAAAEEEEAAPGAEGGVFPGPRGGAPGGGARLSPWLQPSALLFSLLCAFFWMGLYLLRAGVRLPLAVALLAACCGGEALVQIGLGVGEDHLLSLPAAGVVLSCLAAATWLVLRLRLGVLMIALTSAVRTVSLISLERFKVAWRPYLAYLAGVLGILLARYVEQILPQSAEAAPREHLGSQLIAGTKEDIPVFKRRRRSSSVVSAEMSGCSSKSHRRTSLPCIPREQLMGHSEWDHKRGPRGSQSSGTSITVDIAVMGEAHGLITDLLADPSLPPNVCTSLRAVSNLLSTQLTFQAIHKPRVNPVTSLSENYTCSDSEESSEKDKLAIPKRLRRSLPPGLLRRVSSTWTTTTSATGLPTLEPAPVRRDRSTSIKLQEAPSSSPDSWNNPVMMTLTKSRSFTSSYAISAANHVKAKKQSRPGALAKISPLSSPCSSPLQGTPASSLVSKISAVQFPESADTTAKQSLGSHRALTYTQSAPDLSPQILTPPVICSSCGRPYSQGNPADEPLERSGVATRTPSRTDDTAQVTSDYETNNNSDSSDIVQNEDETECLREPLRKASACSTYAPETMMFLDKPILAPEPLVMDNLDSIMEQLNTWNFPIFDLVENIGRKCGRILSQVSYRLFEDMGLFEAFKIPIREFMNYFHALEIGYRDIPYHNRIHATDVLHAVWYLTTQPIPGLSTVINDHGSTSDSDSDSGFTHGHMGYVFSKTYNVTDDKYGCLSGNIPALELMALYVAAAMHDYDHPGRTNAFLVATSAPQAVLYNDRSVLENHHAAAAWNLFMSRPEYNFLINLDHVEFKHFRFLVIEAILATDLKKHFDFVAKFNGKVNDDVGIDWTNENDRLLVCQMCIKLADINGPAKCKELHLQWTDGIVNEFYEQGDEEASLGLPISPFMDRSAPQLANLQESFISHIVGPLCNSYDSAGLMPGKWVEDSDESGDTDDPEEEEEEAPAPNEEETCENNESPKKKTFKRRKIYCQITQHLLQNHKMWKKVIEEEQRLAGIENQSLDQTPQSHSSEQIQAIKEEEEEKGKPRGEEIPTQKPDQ

3',5'-cyclic-AMP phosphodiesterase 4B, sequence (Q07343 whole entry): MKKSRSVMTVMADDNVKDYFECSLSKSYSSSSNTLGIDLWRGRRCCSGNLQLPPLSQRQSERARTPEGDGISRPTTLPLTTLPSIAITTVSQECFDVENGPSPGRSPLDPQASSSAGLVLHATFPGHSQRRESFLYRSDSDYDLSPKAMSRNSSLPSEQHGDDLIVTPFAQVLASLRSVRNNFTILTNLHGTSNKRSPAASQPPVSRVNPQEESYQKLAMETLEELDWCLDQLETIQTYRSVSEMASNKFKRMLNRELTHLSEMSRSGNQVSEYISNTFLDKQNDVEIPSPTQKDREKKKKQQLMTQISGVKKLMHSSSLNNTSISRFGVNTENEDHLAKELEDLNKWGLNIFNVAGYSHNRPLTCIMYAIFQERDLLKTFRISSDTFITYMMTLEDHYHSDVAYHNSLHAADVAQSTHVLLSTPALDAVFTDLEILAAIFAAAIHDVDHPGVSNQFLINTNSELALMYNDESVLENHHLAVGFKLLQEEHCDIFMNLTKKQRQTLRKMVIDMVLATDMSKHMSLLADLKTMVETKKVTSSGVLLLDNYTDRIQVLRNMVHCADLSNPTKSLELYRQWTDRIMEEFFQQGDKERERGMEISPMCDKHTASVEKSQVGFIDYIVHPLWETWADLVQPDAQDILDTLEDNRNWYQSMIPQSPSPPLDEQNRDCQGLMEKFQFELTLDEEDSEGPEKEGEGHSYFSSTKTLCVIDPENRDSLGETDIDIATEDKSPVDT
High affinity 3',5'-cyclic-AMP phosphodiesterase 7A, sequence (Q13946 whole entry): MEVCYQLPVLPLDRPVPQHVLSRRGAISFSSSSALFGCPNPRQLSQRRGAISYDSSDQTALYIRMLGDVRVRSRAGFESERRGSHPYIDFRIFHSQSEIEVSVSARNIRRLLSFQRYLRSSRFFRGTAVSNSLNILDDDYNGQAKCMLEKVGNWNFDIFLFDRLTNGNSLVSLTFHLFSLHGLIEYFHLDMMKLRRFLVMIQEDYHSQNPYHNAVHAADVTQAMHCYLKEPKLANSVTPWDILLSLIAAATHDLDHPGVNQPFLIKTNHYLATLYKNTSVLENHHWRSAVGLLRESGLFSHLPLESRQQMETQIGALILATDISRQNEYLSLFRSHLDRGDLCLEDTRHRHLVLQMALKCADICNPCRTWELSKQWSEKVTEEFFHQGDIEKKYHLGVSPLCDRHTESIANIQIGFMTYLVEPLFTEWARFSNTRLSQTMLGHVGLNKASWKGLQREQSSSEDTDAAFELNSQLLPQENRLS

| IC50 [1] | IC50 (Lymphocyte) | IC50 [4] | solubility [6] | IC50 [7] | Compound | inhibition (INH) (Mus musculus [2]) | IC50 [3] | inhibition (INH) (Mus musculus [5]) |
| --- | --- | --- | --- | --- | --- | --- | --- | --- |
| 2300 nM | 150 nM | 3.3 nM | 150 µg/mL (≈ 352 µM) | 1600 nM | CCn1c(NC(C)C)nc2c(C3CCN(C(=O)c4cccc(C)n4)C3)csc2c1=O (stereo not given) | 65% | 46 nM | 96% |
| – | – | – | 190 µg/mL (≈ 801 µM) | – | CCn1c(NC(C)C)nc2ccsc2c1=O | – | – | – |
| – | – | 4700 nM | – | – | CCn1c(CC(C)C)nc2ccsc2c1=O | – | – | – |
| – | – | 300 nM | 6.3 µg/mL (≈ 25.3 µM) | – | CCn1c(NC2CCC2)nc2ccsc2c1=O | – | 4800 nM | – |
| – | – | 2100 nM | 13 µg/mL (≈ 38.8 µM) | – | CCn1c(N[C@H]2CC[C@H](C(=O)OC)CC2)nc2ccsc2c1=O | – | – | – |
| – | – | 190 nM | 1100 µg/mL (≈ 3430 µM) | – | CCn1c(NC(C)C)nc2c(C3CCNCC3)csc2c1=O | – | 14000 nM | – |
| – | > 3000 nM | 170 nM | 350 µg/mL (≈ 965 µM) | – | CCn1c(NC(C)C)nc2c(C3CCN(C(C)C)CC3)csc2c1=O | – | 25000 nM | – |
| – | – | 15 nM | 470 µg/mL (≈ 1350 µM) | – | CCn1c(NC(C)C)nc2c(C3CCN(C(C)=O)C3)csc2c1=O (stereo not given) | – | 1900 nM | – |
| – | > 1000 nM | 8.4 nM | 130 µg/mL (≈ 345 µM) | – | CCn1c(NC(C)C)nc2c(C3CCN(C(=O)C(C)C)C3)csc2c1=O (stereo not given) | – | 1400 nM | – |
| – | 1800 nM | 8.1 nM | 15 µg/mL (≈ 38.4 µM) | – | CCn1c(NC(C)C)nc2c(C3CCN(C(=O)CC(C)C)C3)csc2c1=O (stereo not given) | – | 2300 nM | – |
| – | 760 nM | 1.5 nM | 21 µg/mL (≈ 51.2 µM) | – | CCn1c(NC(C)C)nc2c(C3CCN(C(=O)c4ccccc4)C3)csc2c1=O (stereo not given) | – | 380 nM | – |
| 3100 nM | 270 nM | 1.4 nM | 64 µg/mL (≈ 150 µM) | 1300 nM | CCn1c(NC(C)C)nc2c(C3CCN(C(=O)c4ncccc4C)C3)csc2c1=O (stereo not given) | 62% | 140 nM | 77% |

Continued, compound first:

| Compound | IC50 [1] | IC50 (Lymphocyte) | IC50 [4] | solubility [6] | IC50 [7] | inhibition (INH) (Mus musculus [2]) | IC50 [3] | inhibition (INH) (Mus musculus [5]) |
| --- | --- | --- | --- | --- | --- | --- | --- | --- |
| CCNc1nc2ccsc2c(=O)n1CC | – | – | 2900 nM | 240 µg/mL (≈ 1070 µM) | – | – | – | – |
| CCCNc1nc2ccsc2c(=O)n1CC | – | – | 1400 nM | 69 µg/mL (≈ 291 µM) | – | – | – | – |
| CCn1c(NC(C)(C)C)nc2ccsc2c1=O | – | – | 1500 nM | 3.7 µg/mL (≈ 14.7 µM) | – | – | – | – |
| CCn1c(NC2CC2)nc2ccsc2c1=O | – | – | 2600 nM | 430 µg/mL (≈ 1830 µM) | – | – | – | – |
| CCn1c(NC2CCOCC2)nc2ccsc2c1=O | – | – | 430 nM | 37 µg/mL (≈ 132 µM) | – | – | 12000 nM | – |
| CCn1c(N[C@H]2CC[C@H](O)CC2)nc2ccsc2c1=O | – | – | 2300 nM | 74 µg/mL (≈ 252 µM) | – | – | 24000 nM | – |
| CCn1c(N[C@H]2CC[C@H](C(=O)O)CC2)nc2ccsc2c1=O | – | – | 1300 nM | 450 µg/mL (≈ 1400 µM) | – | – | – | – |
| CCn1c(NC(C)C)nc2c(-c3cccnc3)csc2c1=O | – | – | 4.4 nM | 5.8 µg/mL (≈ 18.4 µM) | – | – | 520 nM | – |
| CCn1c(NC(C)C)nc2c(-c3ccco3)csc2c1=O | – | – | 12 nM | 0.1 µg/mL (≈ 0.33 µM) | – | – | 550 nM | – |
| CCn1c(NC(C)C)nc2c(-c3sc(C)nc3C)csc2c1=O | – | – | 6.4 nM | 4.5 µg/mL (≈ 12.9 µM) | – | – | 200 nM | – |
| CCn1c(NC(C)C)nc2c(-c3ccnc(OC)c3)csc2c1=O | – | – | 4.6 nM | 2.4 µg/mL (≈ 6.97 µM) | – | – | 420 nM | – |
| CCn1c(NC(C)C)nc2c(-c3cncnc3)csc2c1=O | – | – | 7.6 nM | 18 µg/mL (≈ 57.1 µM) | – | – | 1100 nM | – |
| CCn1c(NC(C)C)nc2c(C3CCN(c4ccccn4)CC3)csc2c1=O | – | > 3000 nM | 6.8 nM | – | – | – | 440 nM | – |
| CCn1c(NC(C)C)nc2c(C3CCN(C(C)=O)CC3)csc2c1=O | – | 2000 nM | 20 nM | 74 µg/mL (≈ 204 µM) | – | – | 1500 nM | – |
| CCn1c(NC(C)C)nc2c(C3CCCN(C(C)=O)C3)csc2c1=O (stereo not given) | – | 750 nM | 5.1 nM | 230 µg/mL (≈ 634 µM) | – | – | 560 nM | – |
| CCn1c(NC(C)C)nc2c(C3CCN(C(=O)c4ccccn4)C3)csc2c1=O (stereo not given) | 3000 nM | 290 nM | 2.7 nM | 38 µg/mL (≈ 92.3 µM) | 3300 nM | 45% | 200 nM | 72% |
